These are literature values, as cited in patent US6485708B1, “Products and methods for the remineralization and prevention of demineralization of teeth” (Church & Dwight Co. Inc., priority 1999, dated 2002).

SMILES strings stand for the structures.

The conditions of this data set: aqueous solution, pH about 7.0, about 25° C.

Turning to `O.O.O=P([O-])([O-])O.[Ca+2]` [dicalcium phosphate dihydrate], the calcium cations released result is “about 40 ppm”.
